Source: the supplement of paper PMC8882468

system: HCI-027 (organoid from a triple-negative breast cancer xenograft); test: CTG-3D luminescence at 96 h relative to day-0 seeding control (ratio to day 0); higher = more growth / less cytotoxicity; PDxO 3D drug screen, 96 h, CTG-3D normalised to day-0 seeding control.; details: 12.5 pM; days in culture: 176

Row | SMILES | CTG-3D luminescence at 96 h
1 | C[C@@H]1COCCN1c1cc(C2([S@](C)(=N)=O)CC2)nc(-c2cc[nH]c3nccc2-3)n1 [ceralasertib] | 2
2 | CCN1CCN(Cc2ccc(Nc3ncc(F)c(-c4cc(F)c5nc(C)n(C(C)C)c5c4)n3)nc2)CC1 [abemaciclib] | 2.08
3 | NC1(C(=O)N[C@@H](CCO)c2ccc(Cl)cc2)CCN(c2nc[nH]c3nccc2-3)CC1 [capivasertib] | 2.31
4 | CC(C)n1nc(-c2ccc3oc(N)nc3c2)c2c(N)ncnc21 [sapanisertib] | 2.05
5 | O=C(c1ccc(F)c(F)c1Nc1ccc(I)cc1F)N1CC(O)([C@@H]2CCCCN2)C1 [cobimetinib] | 2.03
6 | C[C@H](NC(=O)CCC(F)(F)F)C(=O)N[C@@H]1C(=O)N(CCO)c2ncccc2-c2ccccc21 [crenigacestat] | 1.81
7 | Cc1cc(Nc2ncc(Cl)c(Nc3ccccc3S(=O)(=O)C(C)C)n2)c(OC(C)C)cc1C1CCNCC1 [ceritinib] | 2.26
8 | CS(=O)(=O)c1ccc(C(=O)Nc2ccc(Cl)c(-c3ccccn3)c2)c(Cl)c1 [vismodegib] | 2.64
9 | NC(=O)c1cccc2cn(-c3ccc([C@@H]4CCCNC4)cc3)nc12 [niraparib] | 3.12

same assay, conditions: 12.5 pM; days in culture: 194

Row | SMILES | CTG-3D luminescence at 96 h
10 | C[C@@H]1COCCN1c1cc(C2([S@](C)(=N)=O)CC2)nc(-c2cc[nH]c3nccc2-3)n1 [ceralasertib] | 1.7
11 | CCN1CCN(Cc2ccc(Nc3ncc(F)c(-c4cc(F)c5nc(C)n(C(C)C)c5c4)n3)nc2)CC1 [abemaciclib] | 1.66
12 | NC1(C(=O)N[C@@H](CCO)c2ccc(Cl)cc2)CCN(c2nc[nH]c3nccc2-3)CC1 [capivasertib] | 1.58
13 | CC(C)n1nc(-c2ccc3oc(N)nc3c2)c2c(N)ncnc21 [sapanisertib] | 1.72
14 | O=C(c1ccc(F)c(F)c1Nc1ccc(I)cc1F)N1CC(O)([C@@H]2CCCCN2)C1 [cobimetinib] | 1.89
15 | C[C@H](NC(=O)CCC(F)(F)F)C(=O)N[C@@H]1C(=O)N(CCO)c2ncccc2-c2ccccc21 [crenigacestat] | 1.84
16 | Cc1cc(Nc2ncc(Cl)c(Nc3ccccc3S(=O)(=O)C(C)C)n2)c(OC(C)C)cc1C1CCNCC1 [ceritinib] | 1.42
17 | CS(=O)(=O)c1ccc(C(=O)Nc2ccc(Cl)c(-c3ccccn3)c2)c(Cl)c1 [vismodegib] | 2.59
18 | NC(=O)c1cccc2cn(-c3ccc([C@@H]4CCCNC4)cc3)nc12 [niraparib] | 2.35

same assay, conditions: 12.5 pM; days in culture: 201

Row | SMILES | CTG-3D luminescence at 96 h
19 | C[C@@H]1COCCN1c1cc(C2([S@](C)(=N)=O)CC2)nc(-c2cc[nH]c3nccc2-3)n1 [ceralasertib] | 1.78
20 | CCN1CCN(Cc2ccc(Nc3ncc(F)c(-c4cc(F)c5nc(C)n(C(C)C)c5c4)n3)nc2)CC1 [abemaciclib] | 2.8
21 | NC1(C(=O)N[C@@H](CCO)c2ccc(Cl)cc2)CCN(c2nc[nH]c3nccc2-3)CC1 [capivasertib] | 1.67
22 | CC(C)n1nc(-c2ccc3oc(N)nc3c2)c2c(N)ncnc21 [sapanisertib] | 2.25
23 | O=C(c1ccc(F)c(F)c1Nc1ccc(I)cc1F)N1CC(O)([C@@H]2CCCCN2)C1 [cobimetinib] | 1.99
24 | C[C@H](NC(=O)CCC(F)(F)F)C(=O)N[C@@H]1C(=O)N(CCO)c2ncccc2-c2ccccc21 [crenigacestat] | 2.13
25 | Cc1cc(Nc2ncc(Cl)c(Nc3ccccc3S(=O)(=O)C(C)C)n2)c(OC(C)C)cc1C1CCNCC1 [ceritinib] | 2.21
26 | CS(=O)(=O)c1ccc(C(=O)Nc2ccc(Cl)c(-c3ccccn3)c2)c(Cl)c1 [vismodegib] | 3.03
27 | NC(=O)c1cccc2cn(-c3ccc([C@@H]4CCCNC4)cc3)nc12 [niraparib] | 3.32

same assay, conditions: 0.00025 µM; days in culture: 176

Row | SMILES | CTG-3D luminescence at 96 h
28 | C[C@@H]1COCCN1c1cc(C2([S@](C)(=N)=O)CC2)nc(-c2cc[nH]c3nccc2-3)n1 [ceralasertib] | 1.26
29 | CCN1CCN(Cc2ccc(Nc3ncc(F)c(-c4cc(F)c5nc(C)n(C(C)C)c5c4)n3)nc2)CC1 [abemaciclib] | 1.51
30 | NC1(C(=O)N[C@@H](CCO)c2ccc(Cl)cc2)CCN(c2nc[nH]c3nccc2-3)CC1 [capivasertib] | 1.3
31 | CC(C)n1nc(-c2ccc3oc(N)nc3c2)c2c(N)ncnc21 [sapanisertib] | 1.48
32 | O=C(c1ccc(F)c(F)c1Nc1ccc(I)cc1F)N1CC(O)([C@@H]2CCCCN2)C1 [cobimetinib] | 1.26
33 | C[C@H](NC(=O)CCC(F)(F)F)C(=O)N[C@@H]1C(=O)N(CCO)c2ncccc2-c2ccccc21 [crenigacestat] | 1.25
34 | Cc1cc(Nc2ncc(Cl)c(Nc3ccccc3S(=O)(=O)C(C)C)n2)c(OC(C)C)cc1C1CCNCC1 [ceritinib] | 1.27
35 | CS(=O)(=O)c1ccc(C(=O)Nc2ccc(Cl)c(-c3ccccn3)c2)c(Cl)c1 [vismodegib] | 1.85
36 | NC(=O)c1cccc2cn(-c3ccc([C@@H]4CCCNC4)cc3)nc12 [niraparib] | 1.73

same assay, conditions: 0.00025 µM; days in culture: 194

Row | SMILES | CTG-3D luminescence at 96 h
37 | C[C@@H]1COCCN1c1cc(C2([S@](C)(=N)=O)CC2)nc(-c2cc[nH]c3nccc2-3)n1 [ceralasertib] | 1.54
38 | CCN1CCN(Cc2ccc(Nc3ncc(F)c(-c4cc(F)c5nc(C)n(C(C)C)c5c4)n3)nc2)CC1 [abemaciclib] | 1.49
39 | NC1(C(=O)N[C@@H](CCO)c2ccc(Cl)cc2)CCN(c2nc[nH]c3nccc2-3)CC1 [capivasertib] | 1.48
40 | CC(C)n1nc(-c2ccc3oc(N)nc3c2)c2c(N)ncnc21 [sapanisertib] | 1.59
41 | O=C(c1ccc(F)c(F)c1Nc1ccc(I)cc1F)N1CC(O)([C@@H]2CCCCN2)C1 [cobimetinib] | 1.29
42 | C[C@H](NC(=O)CCC(F)(F)F)C(=O)N[C@@H]1C(=O)N(CCO)c2ncccc2-c2ccccc21 [crenigacestat] | 1.19
43 | Cc1cc(Nc2ncc(Cl)c(Nc3ccccc3S(=O)(=O)C(C)C)n2)c(OC(C)C)cc1C1CCNCC1 [ceritinib] | 1.26
44 | CS(=O)(=O)c1ccc(C(=O)Nc2ccc(Cl)c(-c3ccccn3)c2)c(Cl)c1 [vismodegib] | 1.87
45 | NC(=O)c1cccc2cn(-c3ccc([C@@H]4CCCNC4)cc3)nc12 [niraparib] | 1.82

same assay, conditions: 0.00025 µM; days in culture: 201

Row | SMILES | CTG-3D luminescence at 96 h
46 | C[C@@H]1COCCN1c1cc(C2([S@](C)(=N)=O)CC2)nc(-c2cc[nH]c3nccc2-3)n1 [ceralasertib] | 1.98
47 | CCN1CCN(Cc2ccc(Nc3ncc(F)c(-c4cc(F)c5nc(C)n(C(C)C)c5c4)n3)nc2)CC1 [abemaciclib] | 2.7
48 | NC1(C(=O)N[C@@H](CCO)c2ccc(Cl)cc2)CCN(c2nc[nH]c3nccc2-3)CC1 [capivasertib] | 1.8
49 | CC(C)n1nc(-c2ccc3oc(N)nc3c2)c2c(N)ncnc21 [sapanisertib] | 1.83
50 | O=C(c1ccc(F)c(F)c1Nc1ccc(I)cc1F)N1CC(O)([C@@H]2CCCCN2)C1 [cobimetinib] | 1.85
51 | C[C@H](NC(=O)CCC(F)(F)F)C(=O)N[C@@H]1C(=O)N(CCO)c2ncccc2-c2ccccc21 [crenigacestat] | 1.77
52 | Cc1cc(Nc2ncc(Cl)c(Nc3ccccc3S(=O)(=O)C(C)C)n2)c(OC(C)C)cc1C1CCNCC1 [ceritinib] | 1.72
53 | CS(=O)(=O)c1ccc(C(=O)Nc2ccc(Cl)c(-c3ccccn3)c2)c(Cl)c1 [vismodegib] | 3.03
54 | NC(=O)c1cccc2cn(-c3ccc([C@@H]4CCCNC4)cc3)nc12 [niraparib] | 3.11

same assay, conditions: 0.005 µM; days in culture: 176

Row | SMILES | CTG-3D luminescence at 96 h
55 | C[C@@H]1COCCN1c1cc(C2([S@](C)(=N)=O)CC2)nc(-c2cc[nH]c3nccc2-3)n1 [ceralasertib] | 2.33
56 | CCN1CCN(Cc2ccc(Nc3ncc(F)c(-c4cc(F)c5nc(C)n(C(C)C)c5c4)n3)nc2)CC1 [abemaciclib] | 2.54
57 | NC1(C(=O)N[C@@H](CCO)c2ccc(Cl)cc2)CCN(c2nc[nH]c3nccc2-3)CC1 [capivasertib] | 2.32
58 | CC(C)n1nc(-c2ccc3oc(N)nc3c2)c2c(N)ncnc21 [sapanisertib] | 2.22
59 | O=C(c1ccc(F)c(F)c1Nc1ccc(I)cc1F)N1CC(O)([C@@H]2CCCCN2)C1 [cobimetinib] | 2.15
60 | C[C@H](NC(=O)CCC(F)(F)F)C(=O)N[C@@H]1C(=O)N(CCO)c2ncccc2-c2ccccc21 [crenigacestat] | 0.916
61 | Cc1cc(Nc2ncc(Cl)c(Nc3ccccc3S(=O)(=O)C(C)C)n2)c(OC(C)C)cc1C1CCNCC1 [ceritinib] | 2.21
62 | CS(=O)(=O)c1ccc(C(=O)Nc2ccc(Cl)c(-c3ccccn3)c2)c(Cl)c1 [vismodegib] | 2.83
63 | NC(=O)c1cccc2cn(-c3ccc([C@@H]4CCCNC4)cc3)nc12 [niraparib] | 3.18

same assay, conditions: 0.005 µM; days in culture: 194

Row | SMILES | CTG-3D luminescence at 96 h
64 | C[C@@H]1COCCN1c1cc(C2([S@](C)(=N)=O)CC2)nc(-c2cc[nH]c3nccc2-3)n1 [ceralasertib] | 1.32
65 | CCN1CCN(Cc2ccc(Nc3ncc(F)c(-c4cc(F)c5nc(C)n(C(C)C)c5c4)n3)nc2)CC1 [abemaciclib] | 1.8
66 | NC1(C(=O)N[C@@H](CCO)c2ccc(Cl)cc2)CCN(c2nc[nH]c3nccc2-3)CC1 [capivasertib] | 1.43
67 | CC(C)n1nc(-c2ccc3oc(N)nc3c2)c2c(N)ncnc21 [sapanisertib] | 1.5
68 | O=C(c1ccc(F)c(F)c1Nc1ccc(I)cc1F)N1CC(O)([C@@H]2CCCCN2)C1 [cobimetinib] | 1.38
69 | C[C@H](NC(=O)CCC(F)(F)F)C(=O)N[C@@H]1C(=O)N(CCO)c2ncccc2-c2ccccc21 [crenigacestat] | 0.958
70 | Cc1cc(Nc2ncc(Cl)c(Nc3ccccc3S(=O)(=O)C(C)C)n2)c(OC(C)C)cc1C1CCNCC1 [ceritinib] | 1.1
71 | CS(=O)(=O)c1ccc(C(=O)Nc2ccc(Cl)c(-c3ccccn3)c2)c(Cl)c1 [vismodegib] | 2.35
72 | NC(=O)c1cccc2cn(-c3ccc([C@@H]4CCCNC4)cc3)nc12 [niraparib] | 2.05
